Experimental data published in ChEMBL document CHEMBL5505970 (J Med Chem, 2024).
Calls of active or inactive are those of the source. The rule behind the calls is not given here.

What was measured:
[1] = Inhibition of human full length recombinant ATR M211T mutant using GST-c-Myc-p53 as substrate measured after 30 mins in presence of Mg/ATP mix by ELISA
LoVo = test: Cytotoxicity against human LoVo cells assessed as reduction in cell viability incubated for 5 days by CellTiter-Glo assay; type: functional, cell-based; settings: 120 h
ATR/ATRIP = ATR/ATRIP (Homo sapiens, UniProt Q13535); test: Inhibition of human ATR/ATRIP using GST-tagged p53 as substrate in presence of 3 uM ATP by AlphaScreen assay; type: protein-complex assay
[2] = molecular target: T1, Serine/threonine-protein kinase ATR (Homo sapiens, UniProt Q13535); test: Inhibition of ATR in human HeLa S3 cells assessed as decrease in CHK1 phosphorylation at Ser345 residue pretreated for 20 mins followed by gemcitabine stimulation for 3.5 to 4 hrs by AlphaScreen SurFire assay; type: cell-based
[3] = molecular target: Serine-protein kinase ATM (Homo sapiens, UniProt Q13315); test: Inhibition of human full length recombinant ATM using GST-c-Myc-p53 as substrate measured after 30 mins in presence of Mg/ATP mix by ELISA
[4] = molecular target: DNA-dependent protein kinase catalytic subunit (Homo sapiens, UniProt P78527); test: Inhibition of human full length recombinant DNA-PK using GST-c-Myc-p53 as substrate measured after 30 mins in presence of Mg/ATP mix by ELISA
[5] = molecular target: Serine/threonine-protein kinase mTOR (Homo sapiens, UniProt P42345); test: Inhibition of human full length recombinant mTOR measured after 40 mins in presence of [gamma-33P]ATP by radiometric scintillation counting analysis
Homo sapiens [6] = organism: Homo sapiens; test: Selectivity ratio of IC50 for inhibition of mTOR in human HeLa S3 cells to IC50 for inhibition of ATR in human HeLa S3 cells; type: cell-based; settings: time 1.0 hrs
[7] = Clearance in human liver microsomes at 1 uM in presence of NADPH by ESI/LC-MS/MS analysis; type: ADME, Microsome; settings: read-out: CLH
[8] = Apparent permeability of the compound in human Caco-2 cells at 10 uM measured for 90 mins by LC-MS/MS analysis; type: ADME, cell-based
[9] = Efflux ratio of apparent permeability in human Caco-2 cells at 10 uM measured for 90 mins by LC-MS/MS analysis; type: ADME, cell-based
[10] = Oral bioavailability in Sprague-Dawley rat at 2.5 to 5 mg/kg formulated as a solution in 5% NMP:95% (10% VitE TPGS in water) measured for 24 hrs by reverse phase liquid chromatography coupled to mass spectrometry; type: ADME, organism-based; settings: in vivo, dose 2.5-5 mg/kg
[11] = Clearance in Sprague-Dawley rat at 1 mg/kg, iv formulated as a solution in 10% PG:18% PEG400 in water or 5% NMP:95% (10% VitE TPGS in water) measured for 24 hrs by reverse phase liquid chromatography coupled to mass spectrometry; type: ADME, organism-based; settings: in vivo
[12] = Clearance in human hepatocytes at 1 uM measured per million cells by ESI/LC-MS/MS analysis; type: ADME, cell-based, Hepatocyte; settings: read-out: CLH
[13] = molecular target: T1, Serine/threonine-protein kinase ATR; test: Inhibition of ATR (unknown origin) by Morrison equation based analysis
[14] = molecular target: Dual specificity tyrosine-phosphorylation-regulated kinase 1A (Homo sapiens) (UniProt Q13627); test: Inhibition of DYRK1A in human Jurkat cell lysates at 0.03 to 0.3 uM in presence of biotinylated ADP by KiNativ profiling based mass spectrometry; type: subcellular; settings: dose 0.03-0.3 µM
[15] = molecular target: Glycogen synthase kinase-3 alpha (Homo sapiens) (UniProt P49840); test: Inhibition of GSK3A in human Jurkat cell lysates at 0.03 to 0.3 uM in presence of biotinylated ADP by KiNativ profiling based mass spectrometry; type: subcellular; settings: dose 0.03-0.3 µM
[16] = molecular target: Glycogen synthase kinase-3 beta (Homo sapiens) (UniProt P49841); test: Inhibition of GSK3B in human Jurkat cell lysates at 0.03 to 0.3 uM in presence of biotinylated ADP by KiNativ profiling based mass spectrometry; type: subcellular; settings: dose 0.03-0.3 µM
[17] = molecular target: T1, Serine/threonine-protein kinase ATR; test: Inhibition of ATR in gemcitabine-stimulated human LoVo cells assessed as decrease in CHK1 phosphorylation at Ser345 residue; type: cell-based
Homo sapiens [18] = organism: Homo sapiens; test: Selectivity ratio of IC50 for inhibition of mTOR in human LoVo cells using pP70S6K (Thr389) as substrate to IC50 for inhibition of ATR in gemcitabine-stimulated human LoVo cells using CHK1 (Ser345) as substrate; type: cell-based
Granta-519 = test: Antitumor activity against human Granta-519 cells xenografted in NOD-SCID mouse assessed as decrease in tumor volume at 50 mg/kg, po bid for 3 days and measured at 4 days after drug treatment cessation; type: functional, organism-based; settings: time 3.0 day
[19] = Toxicity in NOD-SCID mouse xenografted with human Granta-519 cells assessed as reduction in red blood cells at 50 mg/kg, po bid for 3 days and 4 days off treatment and measured on day 14; type: organism-based; settings: in vivo, 72 h, time 3 day
[20] = Toxicity in NOD-SCID mouse xenografted with human Granta-519 cells assessed as early stage erythroblasts at 30 mg/kg, po bid for 3 days and measured at 4 days after treatment discontinuation by flow cytometry; type: organism-based; settings: in vivo, 72 h, time 3 day
[21] = Toxicity in NOD-SCID mouse xenografted with human Granta-519 cells assessed as late stage erythroblasts at 30 mg/kg, po bid for 3 days and measured at 4 days after treatment discontinuation by flow cytometry; type: organism-based; settings: in vivo, 72 h, time 3 day

T1 sequence (Q13535 whole entry): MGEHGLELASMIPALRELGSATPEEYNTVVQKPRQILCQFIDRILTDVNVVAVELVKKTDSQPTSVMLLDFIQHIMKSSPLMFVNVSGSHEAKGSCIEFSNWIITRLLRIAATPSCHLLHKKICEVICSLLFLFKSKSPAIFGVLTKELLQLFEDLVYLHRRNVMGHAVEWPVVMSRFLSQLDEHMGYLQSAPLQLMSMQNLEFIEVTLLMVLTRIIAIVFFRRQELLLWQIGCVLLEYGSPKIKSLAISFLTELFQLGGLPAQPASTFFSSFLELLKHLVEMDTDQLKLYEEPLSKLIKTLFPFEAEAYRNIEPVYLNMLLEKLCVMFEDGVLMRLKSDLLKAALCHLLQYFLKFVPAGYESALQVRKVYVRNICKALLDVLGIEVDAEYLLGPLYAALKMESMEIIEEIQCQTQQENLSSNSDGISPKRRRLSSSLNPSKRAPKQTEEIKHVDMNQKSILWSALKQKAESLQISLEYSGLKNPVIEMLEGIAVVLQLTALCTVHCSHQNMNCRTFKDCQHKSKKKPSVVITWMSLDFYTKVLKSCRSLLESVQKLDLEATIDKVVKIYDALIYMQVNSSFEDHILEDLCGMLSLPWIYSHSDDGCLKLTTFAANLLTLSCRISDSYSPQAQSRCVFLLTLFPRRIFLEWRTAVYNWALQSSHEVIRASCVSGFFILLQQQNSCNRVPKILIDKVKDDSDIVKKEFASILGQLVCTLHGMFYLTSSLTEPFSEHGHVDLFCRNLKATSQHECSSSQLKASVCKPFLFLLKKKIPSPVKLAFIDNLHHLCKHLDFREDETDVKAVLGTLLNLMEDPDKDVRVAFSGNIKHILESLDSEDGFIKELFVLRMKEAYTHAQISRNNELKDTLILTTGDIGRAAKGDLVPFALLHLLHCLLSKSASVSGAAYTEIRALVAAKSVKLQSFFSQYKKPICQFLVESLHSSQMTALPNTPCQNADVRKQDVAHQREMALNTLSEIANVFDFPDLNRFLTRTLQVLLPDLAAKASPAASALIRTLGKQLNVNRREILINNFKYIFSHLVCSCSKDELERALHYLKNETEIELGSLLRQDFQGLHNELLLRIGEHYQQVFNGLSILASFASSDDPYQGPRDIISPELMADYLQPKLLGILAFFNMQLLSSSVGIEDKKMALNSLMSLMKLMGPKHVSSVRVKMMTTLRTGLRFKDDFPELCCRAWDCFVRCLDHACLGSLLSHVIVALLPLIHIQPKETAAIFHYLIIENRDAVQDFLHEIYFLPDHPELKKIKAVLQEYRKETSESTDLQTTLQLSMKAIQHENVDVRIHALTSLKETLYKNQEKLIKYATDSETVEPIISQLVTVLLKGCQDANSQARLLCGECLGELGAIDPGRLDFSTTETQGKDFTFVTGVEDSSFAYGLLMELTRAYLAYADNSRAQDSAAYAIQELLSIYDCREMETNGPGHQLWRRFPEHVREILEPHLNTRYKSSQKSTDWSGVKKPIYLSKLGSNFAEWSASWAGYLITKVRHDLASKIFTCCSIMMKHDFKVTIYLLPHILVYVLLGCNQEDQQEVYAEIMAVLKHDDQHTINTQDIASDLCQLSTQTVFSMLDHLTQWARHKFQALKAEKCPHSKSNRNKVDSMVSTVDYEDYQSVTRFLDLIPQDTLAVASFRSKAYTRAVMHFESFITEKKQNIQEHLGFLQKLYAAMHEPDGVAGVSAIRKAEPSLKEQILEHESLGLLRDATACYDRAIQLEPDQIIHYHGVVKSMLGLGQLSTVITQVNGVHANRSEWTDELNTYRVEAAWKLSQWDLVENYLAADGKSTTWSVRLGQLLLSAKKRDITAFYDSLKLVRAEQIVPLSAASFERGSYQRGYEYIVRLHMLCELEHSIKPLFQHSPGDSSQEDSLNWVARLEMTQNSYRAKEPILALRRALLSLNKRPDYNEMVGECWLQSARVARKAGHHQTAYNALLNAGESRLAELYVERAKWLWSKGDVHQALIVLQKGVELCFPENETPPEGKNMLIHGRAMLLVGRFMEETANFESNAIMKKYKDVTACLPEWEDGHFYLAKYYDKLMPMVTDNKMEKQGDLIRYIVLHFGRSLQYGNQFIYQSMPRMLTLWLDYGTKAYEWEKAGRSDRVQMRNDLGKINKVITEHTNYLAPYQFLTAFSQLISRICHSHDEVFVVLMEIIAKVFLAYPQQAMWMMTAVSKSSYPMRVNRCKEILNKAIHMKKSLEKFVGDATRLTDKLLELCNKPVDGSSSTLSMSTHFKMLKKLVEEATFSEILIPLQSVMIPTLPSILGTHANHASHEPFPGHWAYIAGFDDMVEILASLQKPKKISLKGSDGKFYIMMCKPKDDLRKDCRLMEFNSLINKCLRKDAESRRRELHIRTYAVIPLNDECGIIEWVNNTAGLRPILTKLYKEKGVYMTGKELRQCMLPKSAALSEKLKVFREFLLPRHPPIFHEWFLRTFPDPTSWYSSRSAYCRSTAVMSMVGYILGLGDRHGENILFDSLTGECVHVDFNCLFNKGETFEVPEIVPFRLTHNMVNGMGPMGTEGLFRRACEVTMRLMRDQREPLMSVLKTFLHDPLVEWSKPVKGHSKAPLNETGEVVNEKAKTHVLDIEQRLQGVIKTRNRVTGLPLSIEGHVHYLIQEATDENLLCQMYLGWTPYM
Sequence of ATR/ATRIP (Q13535 whole entry): as above
Sequence of ATR/ATRIP (Q8WXE1 whole entry, further chain): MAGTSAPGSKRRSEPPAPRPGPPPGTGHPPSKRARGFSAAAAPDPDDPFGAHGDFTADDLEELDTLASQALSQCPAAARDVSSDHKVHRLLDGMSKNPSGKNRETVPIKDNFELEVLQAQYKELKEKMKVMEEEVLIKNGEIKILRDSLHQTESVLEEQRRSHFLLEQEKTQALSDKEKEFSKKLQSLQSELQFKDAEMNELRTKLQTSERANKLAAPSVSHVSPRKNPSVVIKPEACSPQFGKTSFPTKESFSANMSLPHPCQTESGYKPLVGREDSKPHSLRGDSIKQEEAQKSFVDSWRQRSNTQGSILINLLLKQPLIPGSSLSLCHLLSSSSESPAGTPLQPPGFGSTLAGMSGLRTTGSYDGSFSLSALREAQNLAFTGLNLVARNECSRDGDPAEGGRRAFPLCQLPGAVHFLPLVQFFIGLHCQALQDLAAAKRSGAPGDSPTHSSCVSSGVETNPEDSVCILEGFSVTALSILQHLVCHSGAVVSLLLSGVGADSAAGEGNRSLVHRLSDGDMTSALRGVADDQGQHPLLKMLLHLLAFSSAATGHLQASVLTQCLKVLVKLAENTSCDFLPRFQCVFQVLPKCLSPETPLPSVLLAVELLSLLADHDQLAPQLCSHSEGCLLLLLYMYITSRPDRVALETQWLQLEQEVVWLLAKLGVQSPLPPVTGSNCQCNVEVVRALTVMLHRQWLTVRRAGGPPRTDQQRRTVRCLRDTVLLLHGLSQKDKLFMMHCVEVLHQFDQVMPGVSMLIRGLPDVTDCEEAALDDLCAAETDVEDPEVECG
Sequence of Glycogen synthase kinase-3 beta (Homo sapiens) (P49841 whole entry, looked up): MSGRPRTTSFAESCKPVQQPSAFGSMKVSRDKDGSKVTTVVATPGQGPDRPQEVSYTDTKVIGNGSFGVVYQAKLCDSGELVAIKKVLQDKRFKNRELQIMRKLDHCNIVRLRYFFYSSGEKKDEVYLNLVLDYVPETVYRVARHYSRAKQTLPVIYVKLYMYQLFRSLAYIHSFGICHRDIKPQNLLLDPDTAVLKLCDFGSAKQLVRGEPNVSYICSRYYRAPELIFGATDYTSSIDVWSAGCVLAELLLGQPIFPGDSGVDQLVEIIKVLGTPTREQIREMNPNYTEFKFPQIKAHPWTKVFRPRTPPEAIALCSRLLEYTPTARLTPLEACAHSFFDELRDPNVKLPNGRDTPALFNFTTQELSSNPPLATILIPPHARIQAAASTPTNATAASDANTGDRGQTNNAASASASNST
Sequence of Glycogen synthase kinase-3 alpha (Homo sapiens) (P49840 2-483 limits assumed): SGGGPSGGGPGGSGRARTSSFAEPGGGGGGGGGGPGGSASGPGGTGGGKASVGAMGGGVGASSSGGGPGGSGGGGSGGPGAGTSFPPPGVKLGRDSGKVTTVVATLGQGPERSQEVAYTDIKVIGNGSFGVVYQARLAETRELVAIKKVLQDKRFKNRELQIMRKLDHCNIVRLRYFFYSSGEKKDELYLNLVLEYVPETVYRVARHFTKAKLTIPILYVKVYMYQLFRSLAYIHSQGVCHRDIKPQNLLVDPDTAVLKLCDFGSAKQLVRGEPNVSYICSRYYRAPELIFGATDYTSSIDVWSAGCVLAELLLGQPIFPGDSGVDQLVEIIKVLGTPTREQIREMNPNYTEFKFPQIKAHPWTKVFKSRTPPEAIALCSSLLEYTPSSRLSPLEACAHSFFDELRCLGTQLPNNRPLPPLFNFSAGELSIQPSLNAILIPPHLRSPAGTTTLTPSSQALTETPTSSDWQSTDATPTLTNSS

C[C@@H]1COCCN1c1cc(C2([S@](C)(=N)=O)CC2)nc(-c2cc[nH]c3nccc2-3)n1 [CERALASERTIB]
IC50 [1]: 134 nM
IC50 (LoVo): 377 nM

C[C@@H]1COCCN1c1cc(C2(S(C)(=O)=O)CC2)nc(N(C)c2cc[nH]n2)n1
IC50 (ATR/ATRIP): > 1000 nM

C[C@@H]1COCCN1c1cc(C(C)(C)O)c2cnn(-c3cc[nH]n3)c2n1
IC50 [2]: 21 nM

CNCc1ccc(-c2cc(-c3nc(-c4ccc(S(=O)(=O)C(C)C)cc4)cnc3N)on2)cc1 [BERZOSERTIB]
IC50 [1]: 5 nM
IC50 [3]: 85 nM
IC50 [4]: 3600 nM
IC50 [5]: 4800 nM

C[C@@H]1COCCN1c1cc(C(C)(C)C#N)c2cnn(-c3cc[nH]n3)c2n1
IC50 [2]: 0.8 nM
Ratio IC50 (Homo sapiens [6]): 6.6
microsomal CLint at 1 µM [7]: < 11.6 µL/min/mg
Papp at […], 10 µM [8]: 17 ×10⁻⁶ cm/s
efflux ratio at […], 10 µM [9]: 0.9
bioavailability [10]: 56%
clearance [11]: 15 mL/min/kg

C[C@@H]1COCCN1c1ccc2cnn(-c3cc[nH]n3)c2n1
IC50 [2]: 60 nM
Ratio IC50 (Homo sapiens [6]): 4

C[C@@H]1COCCN1c1cc(C2(S(C)(=O)=O)CC2)nc(-c2cccc3[nH]ccc23)n1
IC50 [1]: 10 nM

C[C@@H]1COCCN1c1cc(C2(S(C)(=O)=O)CC2)c2ccn(-c3cc[nH]n3)c2n1
hepatocyte CLint at 1 µM [12]: < 2.9 µL/min/1e6 cells
microsomal CLint at 1 µM [7]: < 11.8 µL/min/mg

Cc1cc2c(C3(S(C)(=O)=O)CC3)cc(N3CCOC[C@H]3C)nc2n1-c1cc[nH]n1
IC50 (ATR/ATRIP): > 1000 nM

C[C@@H]1COCCN1c1cc(C2(S(C)(=O)=O)CC2)nc(Cc2cc[nH]n2)n1
IC50 (ATR/ATRIP): > 700 nM
IC50 [2]: > 10000 nM

Nc1nn2cc(F)cnc2c1C(=O)Nc1cncc(F)c1N1CCC(C(=O)N2CCN(C3COC3)CC2)CC1 [M4344]
IC50 (ATR/ATRIP): 160 nM
Ki [13]: 2.9 nM
IC50 [2]: 5 nM
Ratio IC50 (Homo sapiens [6]): 27
inhibition [14]: Active
inhibition [15]: Active
inhibition [16]: Active
IC50 [17]: 1.1 nM
Ratio IC50 (Homo sapiens [18]): 63

C[C@@H]1COCCN1c1cc(C(C)(C)C(N)=O)c2cnn(-c3cc[nH]n3)c2n1
IC50 [2]: 9 nM

Cc1c[nH]nc1Nc1nc(N2CCOC[C@H]2C)cc(C2(S(C)(=O)=O)CC2)n1
IC50 (ATR/ATRIP): > 1000 nM
IC50 [2]: > 10000 nM

C[C@@H]1COCCN1c1cc(I)c2cnn(-c3ccn[nH]3)c2n1
IC50 [2]: 7 nM
microsomal CLint at 1 µM [7]: 23 µL/min/mg

C[C@@H]1COCCN1c1cc(C2(S(C)(=O)=O)CC2)nc(S(=O)(=O)c2cc[nH]n2)n1
IC50 (ATR/ATRIP): 160 nM
IC50 [2]: > 10000 nM

C[C@@H]1COCCN1c1cc(-c2ccnn2C)c2ccnc(-c3ccn[nH]3)c2n1 [ELIMUSERTIB]
IC50 (LoVo): 27 nM
Activity (Granta-519): Active
Activity [19]: Toxic
Activity [20]: Non-Toxic
Activity [21]: Non-Toxic

C[C@@H]1COCCN1c1cc(C2(O)CCC(F)(F)CC2)c2cnn(-c3cc[nH]n3)c2n1
microsomal CLint at 1 µM [7]: < 11.6 µL/min/mg

C[C@@H]1COCCN1c1cc(C2(S(C)(=O)=O)CC2)nc(Nc2cn[nH]c2)n1
IC50 [2]: > 10000 nM

C[C@@H]1COCCN1c1cc(I)c2cnn(-c3cc[nH]n3)c2n1
Ratio IC50 (Homo sapiens [6]): 1.6

C[C@@H]1COCCN1c1cc(-c2ccccc2C(N)=O)c2cnn(-c3ccn[nH]3)c2n1
microsomal CLint at 1 µM [7]: < 11.6 µL/min/mg
bioavailability [10]: 2%
clearance [11]: 45 mL/min/kg
